Assay results as given in patent US11591564B2, “Peptide conjugated hydrogel substrate for the maintenance and expansion of human pluripotent stem cells” (University of Pittsburgh—Of the Commonwealth System of …, priority 2016, dated 2023).
Where “and” joins values, the source holds several entries; their conditions need not be identical. Equal values may be shown once. No end group written: not given here.

Columns and labels:
hESCs = assay: hESC attachment and viability on HAV10-modified LBL films, effect of EDC/NHS concentration; format: cell-based; conditions: EDC/NHS used for HAV10 conjugation of PEI(Alg/PAH)5Alg films; 6 hours attachment
Method: Layer-by-layer (LBL) coating onto glass coverslips was initiated by incubation in 1.1 mg/ml Polyethylenimine (PEI) for 5 min. The polyelectrolyte solutions used for LBL deposition were 1.1 mg/ml low viscosity alginate (Alg) and poly (allylamine hydrochloride) (PAH), made using 0.1 M 2-(N-morpholino) ethanesulfonic acid (MES) buffer with 0.3M NaCl at pH 6.5. Polyelectrolyte multilayers were deposited by alternatively immersing slides into Alg, followed by PAH, for 1 min each, and were subsequently washed with 0.9% NaCl for 1 min between each deposition step. This process was repeated for 5 Alg/PAH layers, and the film was terminated with a final Alg layer (PEI(Alg/PAH)5Alg). Coverslips were dried at room temperature until used.
Prepared PEI(Alg/PAH)5Alg films were functionalized with the e-cadherin mimicking peptide HAV10 using water soluble carbodiimide chemistry. […]
Human embryonic stem cells (hESCs) were treated with the ROCK inhibitor Y-27632 for 2 hours prior to harvesting. hESCs were harvested using enzyme-free dissociation buffer and were treated with the Vibrant DiD cell labeling solution, to allow for visualization of cell attachment (700 nm). […] Cell attachment for each condition was determined by normalizing the MFI of attached cells to the MFI of the total possible number of cells, for each well imaged.

hPSCs = hPSCs encapsulated in alginate beads (3D), 10-100 mM BaCl2 tested, day 6
Method: hESCs were encapsulated using 10, 15, 20, 50 or 100 mM BaCl2 at a seeding density of 1×10^6 cells/ml of alginate solution. Alginate capsules were incubated for 6-8 min in the BaCl2 solution. Capsules were washed three times with DMEM/F12 and suspended in mTeSR1 ([sequence] Technologies, Vancouver, BC) with 10 mM of the ROCK inhibitor (rho-associated, coiled-coil containing protein kinase inhibitor) Y-27632 (e.g., 4-[(1R)-1-aminoethyl]-N-4-pyridinyl-trans-cyclohexanecarboxamide, dihydrochloride, [sequence] Technologies, Vancouver, BC) for 4 days, followed by 2 days in mTeSR1 alone to allow for colony formation. On day 6, viability of encapsulated hPSCs was analyzed by LIVE/DEAD staining, and imaged with fluorescent microscopy. The stock LIVE images from LIVE/DEAD analysis were processed using Metamorph Integrated Morphometry Analysis. hPSC colony data was generated for each colony within each image, measuring the area of the colony. This image processing was done on images taken on 5 capsules, each day for each condition.

H1 hESCs [1] = assay: Directed differentiation to definitive endoderm, qRT-PCR of SOX17 and FOXA2; format: cell-based, human; conditions: for FOXA2 gene expression, fold increase / SOX17 gene expression, upregulation compared to undifferentiated hESC controls: after DE induction (ActivinA + Wnt3A, 4 days); for FOXA2 expression, difference compared to Matrigel / SOX17 expression, difference compared to Matrigel: after DE induction
Method: (§1) hESC seeded on the peptide modified alginate hydrogels were propagated for 4 days in mTeSR1 with 10 μm Y-27632 prior to DE induction. DE was induced using 100 ng/ml ActivinA (R&D Systems) with 25 ng/ml Wnt3A (R&D Systems) for 4 days. Quantitative Reverse Transcriptase Polymerase Chain Reaction. mRNA was isolated using the NucleoSpin RNA II kit (Macherey-Nagel, Bethlehem, Pa.). cDNA was obtained using ImpromII Reverse Transcription (Promega, Madison, Wis.). Each PCR reaction contained 5 μl SYBR Green Master Mix (Agilent, Santa Clara, Calif.), 2 μl nuclease free H2O, 2 μl primer, and 10 cDNA. Samples were normalized to the house keeping gene GAPDH and analyzed relative to UD hESCs using the ΔΔCt method. Gene expression was measured with quantitative polymerase chain reaction (qRT-PCR) using an MX3005P system (Agilent).
Having confirmed that hPSCs maintained high pluripotency after being propagated on the E-cadherin mimicking substrates, the next question was if the differentiation potency was also maintained. To evaluate differentiation potential, cells were induced toward the definitive endoderm (DE) germ layer.

H1 hESCs [2] = assay: Cell expansion by MTS assay, day 6 normalized to day 1; format: cell-based, human; conditions: 6 days of propagation; alginate modified with 50 μg/ml peptide, or recombinant E-cadherin
Method: To determine cell expansion, cellular metabolism was assayed on cells attached to alginate conjugated with 50 μg/ml of each peptide using the CellTiter 96® AQueous One Solution Cell Proliferation Assay (MTS) after 1 and 6 days of culture, according to manufacturer's instructions. Briefly, cells were incubated with the MTS solution at a 1:5 v/v dilution for 3 hours at 37° C. Absorbance intensity of the supernatant at 490 nm was measured using a Synergy 2 multi-mode Microplate Reader. Fold expansion was determined by normalizing the day 6 absorbance by the day 1 absorbance, for cells grown on each peptide-conjugated alginate substrate.
Since high cell expansion is necessary to generate clinically relevant numbers of hPSCs, we next quantified the expansion potential of hPSCs grown on each peptide. Expansion potential was determined by normalizing cell number after 6 days of propagation, by day 1 cell number using MTS.

H1 hESCs [3] = assay: Day 1 cell attachment to peptide conjugated alginate hydrogel (DiD label, LI-COR MFI); format: cell-based, human; conditions: peptide conjugated to alginate at 0-500 μg/ml
Method: The alginate hydrogels were formed prior to peptide attachment. The culture well was coated with a thin layer of 1.1% (w/v) low viscosity alginate (Sigma-Aldrich) with 0.2% (v/v) gelatin (Sigma-Aldrich), which was allowed to dry overnight. 20 mM BaCl2 was used to rehydrate and simultaneously cross link the alginate in a thin hydrogel covering the bottom of the culture well. Peptide conjugation was done using water soluble carbodiimide chemistry. Alginate hydrogels were activated by incubating with 20 mM/10 mM EDC/NHS in buffer containing 0.3 M 2-(N-morpholino) ethanesulfonic acid (MES) and 0.1 M NaCl, for 15 min. The peptides were then added and incubated overnight at 4° C. to allow for peptide conjugation to the […] of the alginate hydrogel. After conjugation, peptide modified hydrogels were washed with 0.9% saline prior to seeding cells.
Cell Attachment. For cell attachment studies to the peptide modified hydrogels, hESC were first labeled with DiD according to manufactures instruction, a fluorescent lipophilic dye, which is incorporated in the cell membrane. hESC were treated with 10 μm Y-27632 (R&D Systems, Minneapolis, Min.) for 2 hours prior to harvesting by Accutase (Invitrogen) treatment for 5-7 min. […] Cell attachment was analyzed 24 hours after seeding. First, total cell number per well was quantified using the LI-COR Odyssey scanner and Image Studio software to obtain the total possible MFI. Dead and unattached cells were washed away and the number of attached cells per well was again quantified using the LI-COR Odyssey scanner Image Studio software. […]
Having confirmed peptide conjugation to the alginate hydrogel, our first step was to analyze cell attachment to each peptide conjugated substrate. […] After 1 day, cell attachment was quantified for each tested condition using the LI-COR Odyssey scanner. Percent cell attachment was determined by scanning the signal for total seeded cells (prior to wash) and attached cells (post-wash) and normalizing the attached cell MFI to the total cell MFI, for each peptide and peptide concentration (FIG. 9A).

H1 hESCs [4] = assay: Pluripotency after propagation, qRT-PCR of OCT4 and Nanog; format: cell-based, human; conditions: 6 days on alginate conjugated with 50 μg/ml peptide
Method: as §1
Having confirmed that the substrates supported attachment and propagation of hPSCs, the next step was to analyze the maintenance of hPSC pluripotency after propagation. hPSC pluripotency is the ability to become any cell type in the body, and along with self-renewal, is the defining characteristic of hPSCs. The maintenance of pluripotency is critical for the downstream differentiation of hPSC into any functional cell types, for cell therapy applications. hPSCs were seeded on alginate conjugated with 50 μg/ml of HAV10, ADT10, HAV6, or ADT, and propagated for 6 days. […] As before, cell morphology was similar across each peptide, and appeared to have similar morphology to the typical hPSC colony (FIG. 12A).

Compound: 1-ethyl-3-(-3-dimethylaminopropyl) carbodiimide hydrochloride (EDC)/N-hydroxysuccinimide (NHS) [EDC/NHS]
- toxicity towards hPSC attachment and viability (hESCs): mild toxicity

Compound: [Ba+2].[Cl-].[Cl-] [Barium Chloride (BaCl2), Barium Chloride]
- BaCl2 concentration supportive and strongly inductive of hPSC growth (hPSCs): < 15 mM

Compound: ADTPPV (also: conjugated to alginate hydrogel, site not given here) [ADT6]
- FOXA2 gene expression, fold increase (H1 hESCs [1]): 174 fold
- SOX17 gene expression, upregulation compared to undifferentiated hESC controls (H1 hESCs [1]): 3400 fold
- fold expansion of hPSCs (day 6 / day 1) (H1 hESCs [2]): 11 fold
- peptide concentration at which cell attachment peaked (H1 hESCs [3]): 50 µg/mL
- Nanog gene expression, upregulation compared to Matrigel (H1 hESCs [4]): on par with Matrigel
- OCT4 gene expression, upregulation compared to Matrigel (H1 hESCs [4]): on par with Matrigel

Compound: LFSHAVSSNG (also: conjugated to alginate hydrogel, site not given here) [HAV10]
- FOXA2 expression, difference compared to Matrigel (H1 hESCs [1]): no statistical difference
- SOX17 expression, difference compared to Matrigel (H1 hESCs [1]): no statistically significant difference
- FOXA2 gene expression, fold increase (H1 hESCs [1]): 497 fold
- SOX17 gene expression, upregulation compared to undifferentiated hESC controls (H1 hESCs [1]): ~15000 fold
- fold expansion of hPSCs (day 6 / day 1) (H1 hESCs [2]): approximately 23 fold
- peptide concentration at which cell attachment peaked (H1 hESCs [3]): 50 µg/mL

Compound: QGADTPPVGV (also: conjugated to alginate hydrogel, site not given here) [ADT10]
- FOXA2 expression, difference compared to Matrigel (H1 hESCs [1]): no statistical difference
- SOX17 expression, difference compared to Matrigel (H1 hESCs [1]): no statistically significant difference
- FOXA2 gene expression, fold increase (H1 hESCs [1]): 409 fold
- SOX17 gene expression, upregulation compared to undifferentiated hESC controls (H1 hESCs [1]): ~13700 fold
- fold expansion of hPSCs (day 6 / day 1) (H1 hESCs [2]): approximately 14 fold
- cell attachment compared among peptides (H1 hESCs [3]): highest cell attachment among all peptides
- Nanog gene expression, upregulation compared to Matrigel (H1 hESCs [4]): 1.5 fold and 1.6 fold
- OCT4 gene expression, upregulation compared to Matrigel (H1 hESCs [4]): 3 fold and 3.6 fold

Compound: SHAVSS (also: conjugated to alginate hydrogel, site not given here) [HAV6]
- FOXA2 gene expression, fold increase (H1 hESCs [1]): 355 fold
- SOX17 gene expression, upregulation compared to undifferentiated hESC controls (H1 hESCs [1]): 5900 fold
- fold expansion of hPSCs (day 6 / day 1) (H1 hESCs [2]): 16 fold
- Nanog gene expression, upregulation compared to Matrigel (H1 hESCs [4]): 1.5 fold
- OCT4 gene expression, upregulation compared to Matrigel (H1 hESCs [4]): 2 fold
